According to US12240825B2, “Oxexin 1 receptor antagonists” (Heptares Therapeutics Limited, priority 2019, dated 2025):

Columns and labels:
Human OX2 receptor [1] = biological target: T1, Human OX2 receptor (Homo sapiens (Human), UniProt O43614); assay: [3H]-radioligand binding assay, OX2; conditions: competition binding, membranes of SF21 cells, Ki by Cheng-Prusoff
From the text: (§1) Cloning, Baculovirus generation, large-scale infection of SF21 cells and membrane preparation. Human OX1 or OX2 receptor were cloned into Invitrogen's (ThermoFisher Scientific, UK) Bac-to-Bac Baculovirus Expression System. P0 baculovirus was generated by transfecting SF9 cells with bacmid DNA using Cellfectin® II transfection reagent (ThermoFisher Scientific, UK, Catalog number 10362-100). Following P0 generation P1 virus was then generated ready for large scale infection and membrane preparation. SF21 cells were grown in expression medium ESF921 (Expression Systems, USA, catalog number 96-001-01) supplemented with 10% heat-inactivated FBS and 1% Pen/Strep and were infected at a cell density of 2.5×10^6 cells/mL and a multiplicity of infection of 1.0 for both human OX1R and OX2R. Incubation was carried out at over 48 h in a shaking incubator set at 27° C. The cell culture was then centrifuged at 2,500 rcf for 10 min at 4° C. The pellets were resuspended in cold PBS supplemented with Roche's Complete EDTA-free protease inhibitor cocktail tablets (Roche Applied Sciences, catalog number 05056489001), 1 mM PMSF and 1 mM EDTA. The resuspended cell paste was then centrifuged at 3,273 rcf for 12 min at 4° C. The supernatant was discarded and the pellet frozen at −80° C. The cell pellet from a 4 L culture was resuspended in buffer containing 50 mM HEPES pH 7.5, 150 mM NaCl, 8 Roche EDTA-Free protease inhibitor cocktail tablets and 1 mM PMSF. The suspension was left stirring at rt for 1 h and then homogenised for 90 s at 9,500 rpm using a VDI 25 (VWR, USA) homogeniser. The cells were then lysed using a Microfluidiser processor M-110L Pneumatic (Microfluidics, USA) at 60 PSI and membranes collected by ultracentrifugation at 204.7 k×g for 1 h. The supernatant was discarded and the pellet was resuspended and homogenised in 90 s at 9,500 rpm in 50 mL (25 mL for each 2 L culture) of buffer containing 50 mM Hepes pH 7.5, 150 mM NaCl, 3 Roche EDTA-free protease inhibitor cocktail tablets and 1 mM PMSF. The resulting membranes were then stored at −80° C.
(§2) [^3H]-radioligand binding assay. After thawing, membrane homogenates were resuspended in the binding buffer (8.5 mM HEPES, pH 7.4, 1.3 mM CaCl2, 1.2 mM MgSO4, 118 mM NaCl, 4.7 mM KCl, 4 mM NaHCO3, 1.2 mM KH2PO4, 11 mM glucose) to a final assay concentration of 6.4 μg (OX1) or 1.4 μg (OX2) protein per well. Saturation isotherms were determined by the addition of various concentrations (0-30 nM) of [^3H]-4-(2,6-difluoro-4-methoxybenzyl)-2-(5,6-dimethoxypyridin-3-yl)-2H-1,2,4-benzothiadiazin-3(4H)-one 1,1-dioxide (Christopher et al, MedChemComm., 2015, 6, 947-955) in a total reaction volume of 250 μL for 90 min at rt. At the end of the incubation, membranes were filtered onto a 96-well GF/B filter pre-incubated with 0.5% polyethylenimine, with a Tomtec cell harvester and washed 5 times with 0.5 mL distilled water. Non-specific binding (NSB) was measured in the presence of 3.33 μM [4-(5-chloro-1,3-benzoxazol-2-yl)-7-methyl-1,4-diazepan-1-yl][5-methyl-2-(2H-1,2,3-triazol-2-yl)phenyl]methanone (Wertz et al, Angew. Chem. Int. Ed., 2011, 50, 11511-11515). Radioactivity on the filter was counted (1 min) on a Microbeta radiometric plate counter (Perkin Elmer) after addition of 50 μL of scintillation fluid (LabLogic: Part #SG-BXX-14). […] IC50 values were derived from the inhibition curve and the equilibrium dissociation constant (Ki) values were calculated using the Cheng-Prusoff equation.

Human OX1 receptor [2] = biological target: T2, Human OX1 receptor (Homo sapiens (Human), UniProt O43613); assay: IPone accumulation assay, CHO cells expressing OX1; assay type: cell-based; conditions: antagonism of orexin A (EC80 ~20 nM)-induced inositol phosphate turnover, read-out: fpKb average OX1 (converted)
Experimental: Generation of CHO stable cell lines expressing the human OX1R and OX2R. Stable cell lines for the human OX1R and OX2R receptors were generated through the transfection of CHO cells using the transfection reagent Genejuice (Novagen number 70967) and cDNA coding for either the human OX1R or OX2R. Cells were cultured in Sigma Nutrient Mixture F-12 Ham media (catalog number N6658) supplemented with 10% heat-inactivated FBS. Forty-eight hours after transfection, cells were harvested and placed under geneticin selection by culturing in Sigma Nutrient Mixture F-12 Ham media supplemented with 10% heat-inactivated FBS and geneticin (ThermoFisher Catalog number: 10131035). Selection of the final stable clone for each receptor was made on the basis of receptor expression, assay signal to noise and robustness though increasing passage. Selected clones for the human OX1R and OX2R were then frozen down into liquid nitrogen using Cell Freezing Medium-DMSO (Sigma-Aldrich catalog number: C6164).
(§3) IPone accumulation assay. A CHO cell line stably expressing either human OX1 or OX2 receptor was used with the IPone HTRF assay kit (CisBio: Part #62IPAPEJ) to measure receptor activation. The assay was optimised to measure the ability (potency; fpKb) of antagonists to reduce agonist (orexin A)-induced inositol phosphate turnover. Briefly, cells were plated onto half area 96-well white walled plates at a density of 12,500 cells/well. Sixteen hours post-plating cell growth media was replaced with antagonist concentration-response curve diluted in stimulation buffer (supplied with the kit). Cells were incubated in a humidified incubator (37° C.) for 30 min before an EC80 challenge concentration (˜20 nM (OX1) and 40 nM (OX2)) of orexin A (Tocris catalogue number 1455). After 30 min stimulation in a humidified incubator (37° C.) the assay was terminated by the addition of detection mixture as per manufacturer's instructions. The concentration of compound which reduced orexin-A stimulated turnover of inositol phosphates by 50% (IC50) was calculated by fitting to a four parameter sigmoidal dose response curve. The IC50 values were converted to fpKB values using the orexin A pEC50 value estimated on each plate as well as the challenge concentration interpolated from the orexin A control curve.

Human OX2 receptor [3] = biological target: T1, Human OX2 receptor; assay: IPone accumulation assay, CHO cells expressing OX2; assay type: cell-based; conditions: antagonism of orexin A (EC80 40 nM)-induced inositol phosphate turnover, read-out: fpKb average OX2 (converted)
Experimental: as §3, with “Generation of CHO stable cell lines expressing the human OX1R and OX2R. Stable cell lines for the human OX1R and OX2R receptors were generated through the transfection of CHO cells using the transfection reagent Genejuice (Novagen number 70967) and cDNA coding for either the human OX1R or OX2R. Cells were cultured in Sigma Nutrient Mixture F-12 Ham media (catalog number N6658) supplemented with 10% heat-inactivated FBS. Forty-eight hours after transfection, cells were harvested and placed under geneticin selection by culturing in Sigma Nutrient Mixture F-12 Ham media supplemented with 10% heat-inactivated FBS and geneticin (ThermoFisher Catalog number: 10131035). Selection of the final stable clone for each receptor was made on the basis of receptor expression, assay signal to noise and robustness though increasing passage. Selected clones for the human OX1R and OX2R were then frozen down into liquid nitrogen using Cell Freezing Medium-DMSO (Sigma-Aldrich catalog number: C6164). IPone accumulation” for “IPone accumulation”, “(CisBio: Part #62[…]) to measure” for “(CisBio: Part #62IPAPEJ) to measure”, “challenge concentration ( 20 nM (OX1)” for “challenge concentration (˜20 nM (OX1)”

Human OX1 receptor [4] = biological target: T2, Human OX1 receptor; assay: [3H]-radioligand binding assay, OX1; conditions: competition binding, membranes of SF21 cells, Ki by Cheng-Prusoff
From the text: as §1, §2

T2 sequence (O43613 whole entry): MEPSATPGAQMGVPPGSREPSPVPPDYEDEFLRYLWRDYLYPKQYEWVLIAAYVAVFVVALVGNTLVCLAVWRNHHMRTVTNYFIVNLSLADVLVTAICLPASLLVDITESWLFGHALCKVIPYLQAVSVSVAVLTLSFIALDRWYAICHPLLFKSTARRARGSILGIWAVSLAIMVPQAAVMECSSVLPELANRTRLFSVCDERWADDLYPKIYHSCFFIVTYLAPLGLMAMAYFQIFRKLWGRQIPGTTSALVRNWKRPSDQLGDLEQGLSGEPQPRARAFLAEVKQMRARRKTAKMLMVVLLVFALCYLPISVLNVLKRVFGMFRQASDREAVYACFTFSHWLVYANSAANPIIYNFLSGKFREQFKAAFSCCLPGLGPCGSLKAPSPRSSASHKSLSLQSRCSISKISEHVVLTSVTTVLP
T1 sequence (O43614 whole entry): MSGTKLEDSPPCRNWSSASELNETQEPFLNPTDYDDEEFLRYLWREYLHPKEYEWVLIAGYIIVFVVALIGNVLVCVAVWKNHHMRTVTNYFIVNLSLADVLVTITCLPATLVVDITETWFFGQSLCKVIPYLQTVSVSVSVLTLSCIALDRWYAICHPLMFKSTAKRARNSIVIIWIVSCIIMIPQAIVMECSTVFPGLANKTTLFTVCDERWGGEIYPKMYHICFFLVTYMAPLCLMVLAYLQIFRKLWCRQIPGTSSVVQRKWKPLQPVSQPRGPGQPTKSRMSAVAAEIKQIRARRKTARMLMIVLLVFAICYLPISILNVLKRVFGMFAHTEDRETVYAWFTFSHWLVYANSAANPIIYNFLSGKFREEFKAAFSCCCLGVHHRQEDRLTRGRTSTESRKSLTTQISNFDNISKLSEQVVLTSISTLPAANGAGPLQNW

Row | SMILES | pKi average OX2 (Human OX2 receptor [1]) | Kb (Human OX1 receptor [2]) [µM] | Kb (Human OX2 receptor [3]) [µM] | pKi average OX1 (Human OX1 receptor [4])
1 | O=C(N[C@H]1CCC[C@@H]1COc1ccc(F)cc1)c1nc(NC(=O)C(F)F)ccc1-n1nccn1 [Example 11, 6-[(2,2-difluoroacetyl)amino]-N-[(1S,2S)-2-[(4-fluorophenoxy)methyl]cyclopentyl]-3-(triazol-2-yl)pyridine-2-carboxamide] | <5.8 | 0.0316 | > 1 | 7.9
2 | CC(=O)Nc1ccc(-n2nccn2)c(C(=O)N[C@H]2CCC[C@@H]2COc2ccc(F)cc2)n1 [Example 3, 6-acetamido-N-[(1S,2S)-2-[(4-fluorophenoxy)methyl]cyclopentyl]-3-(triazol-2-yl)pyridine-2-carboxamide] | 5.4 | 0.02 | 1.26 | 8.3
3 | CC(=O)Nc1cc(C(=O)N[C@H]2CCC[C@@H]2COc2ccc(F)cc2)c(-c2ncccn2)cn1 [Example 24, 2-acetamido-N-[(1S,2S)-2-[(4-fluorophenoxy)methyl]cyclopentyl]-5-pyrimidin-2-yl-pyridine-4-carboxamide] | 6.6 | 0.00126 | > 0.398 | 8.3
4 | CC(=O)Nc1cc(F)c(-n2nccn2)c(C(=O)N[C@H]2CCC[C@@H]2COc2ccc(F)cc2)c1 [Example 1, 5-acetamido-3-fluoro-N-[(1S,2S)-2-[(4-fluorophenoxy)methyl]cyclopentyl]-2-(triazol-2-yl)benzamide] | 7.3 | 0.000794 | > 0.0631 | 9.0
5 | CC(=O)Nc1ccc(-n2nccn2)c(C(=O)N[C@H]2CCC[C@@H]2COc2ccc(Cl)cc2)n1 [Example 6, 6-acetamido-N-[(1S,2S)-2-[(4-chlorophenoxy)methyl]cyclopentyl]-3-(triazol-2-yl)pyridine-2-carboxamide] | <5.2 | 0.00794 | > 0.631 | 8.1
6 | CC(=O)Nc1ccc(-n2nccn2)c(C(=O)N[C@H]2CCC[C@@H]2COc2ccc(F)cc2F)n1 [Example 17, 6-acetamido-N-[(1S,2S)-2-[(2,4-difluorophenoxy)methyl]cyclopentyl]-3-(triazol-2-yl)pyridine-2-carboxamide] | 5.4 | 0.0501 | > 0.0631 | 9.1
7 | COC(=O)Nc1ccc(-n2nccn2)c(C(=O)N[C@H]2CCC[C@@H]2COc2ccc(F)cc2)n1 [Example 10, methyl N-[6-[[(1S,2S)-2-[(4-fluorophenoxy)methyl]cyclopentyl]carbamoyl]-5-(triazol-2-yl)-2-pyridyl]carbamate] | <5.9 | 0.0794 | > 0.794 | 8.1
8 | Nc1ccc(-n2nccn2)c(C(=O)N[C@H]2CCC[C@@H]2COc2ccc(F)cc2)n1 [Example 4, 6-amino-N-[(1S,2S)-2-[(4-fluorophenoxy)methyl]cyclopentyl]-3-(triazol-2-yl)pyridine-2-carboxamide] | 5.9 | 0.01 | > 1.26 | 8.0
9 | CC(=O)Nc1ccc(-n2nccn2)c(C(=O)N(C(C)C)[C@H]2CCC[C@@H]2COc2ccc(F)cc2)n1 [Example 7, 6-acetamido-N-[(1S,2S)-2-[(4-fluorophenoxy)methyl]cyclopentyl]-N-isopropyl-3-(triazol-2-yl)pyridine-2-carboxamide] | <5.3 | 0.0251 | > 0.794 | 8.1
10 | CC(=O)Nc1ccc(-c2ncc(F)cn2)c(C(=O)N[C@H]2CCC[C@@H]2COc2ccc(F)cc2)n1 [Example 21, 6-acetamido-N-[(1S,2S)-2-[(4-fluorophenoxy)methyl]cyclopentyl]-3-(5-fluoropyrimidin-2-yl)pyridine-2-carboxamide] | 5.6 | 0.02 | > 0.794 | 8.2
11 | CC(=O)Nc1ccc(-n2nccn2)c(C(=O)N[C@H]2CCC[C@@H]2COc2ccc(F)cn2)n1 [Example 26, 6-acetamido-N-[(1S,2S)-2-[(5-fluoro-2-pyridyl)oxymethyl]cyclopentyl]-3-(triazol-2-yl)pyridine-2-carboxamide] | <5.1 | 0.316 | > 1 | 7.9
